According to patent US7713964B2, “Methods for treating asthmatic conditions” (Wyeth LLC, priority 2001, dated 2010):

Biological target: T1, cPLA2 (Homo sapiens, UniProt P47712)
T1 sequence (P47712 1-749): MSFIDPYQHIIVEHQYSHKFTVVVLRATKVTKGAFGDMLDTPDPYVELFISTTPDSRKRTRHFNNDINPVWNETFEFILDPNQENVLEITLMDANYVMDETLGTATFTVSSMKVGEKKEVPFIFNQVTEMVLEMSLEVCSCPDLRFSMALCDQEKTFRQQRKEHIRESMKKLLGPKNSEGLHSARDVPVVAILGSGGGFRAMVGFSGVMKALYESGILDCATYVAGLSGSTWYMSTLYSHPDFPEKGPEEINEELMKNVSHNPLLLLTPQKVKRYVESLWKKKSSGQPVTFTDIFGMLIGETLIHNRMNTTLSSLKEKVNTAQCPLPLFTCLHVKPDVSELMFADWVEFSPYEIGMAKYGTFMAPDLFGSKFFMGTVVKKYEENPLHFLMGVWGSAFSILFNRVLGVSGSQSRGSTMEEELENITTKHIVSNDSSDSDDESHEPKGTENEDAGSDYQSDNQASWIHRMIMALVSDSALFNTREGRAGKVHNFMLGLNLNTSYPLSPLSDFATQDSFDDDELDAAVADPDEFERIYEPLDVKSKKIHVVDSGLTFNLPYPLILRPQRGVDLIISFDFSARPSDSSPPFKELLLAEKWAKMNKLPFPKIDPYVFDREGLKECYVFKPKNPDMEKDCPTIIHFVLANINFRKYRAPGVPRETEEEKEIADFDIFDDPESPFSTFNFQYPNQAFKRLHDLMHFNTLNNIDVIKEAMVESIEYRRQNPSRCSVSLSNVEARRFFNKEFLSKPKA
Test: Coumarine Assay (hydrolysis of 7-hydroxycoumarinyl 6-heptenoate by cPLA2, fluorometric)
Type: biochemical
Conditions: 60 μM 7-hydroxycoumarinyl 6-heptenoate substrate, 4 μg cPLA2, pH 7.5; excitation 360 nm, emission 460 nm; read-out: Coumarin IC50

Compound	IC50 [nM]
4-[2-(1-benzhydryl-5-chloro-2-{2-[({2-[(3R,5S)-3,5-dimethylmorpholin4-yl]ethyl}sulfonyl)amino]ethyl}-1H-indol-3-yl)ethoxy]benzoic acid [Example 250]	2100
O=C(O)c1cccc(OCCc2c(CCNS(=O)(=O)Cc3ccc(Cl)c(Cl)c3)n(C(c3ccccc3)c3ccccc3)c3ccc(Cl)cc23)c1 [Example 284, 3-(2-(1-benzhydryl-5-chloro-2-(2-((3,4-dichlorophenyl)methylsulfonamido)ethyl)-1H-indol-3-yl)ethoxy) benzoic acid]	400
O=C(O)c1ccc(OCCc2c(CCNS(=O)(=O)c3c(F)cccc3F)n(C(c3ccccc3)c3ccccc3)c3ccc(Cl)cc23)cc1 [Example 225, 4-{2-[1-benzhydryl-5-chloro-2-(2-{[(2,6-fluorophenyl)sulfonyl]amino}ethyl)-1H-indol-3-yl]ethoxy}benzoic acid]	400
4-{2-[1-benzhydryl-5-chloro-2-(2-{[(2,6-dimethylbenzyl)sulfonyl]amino}ethyl)-1H-indol-3-yl]ethoxy}benzoic acid [Example 279]	160
O=C(O)c1ccc(OCCc2c(CCNS(=O)(=O)c3cccc(F)c3)n(C(c3ccccc3)c3ccccc3)c3ccc(Cl)cc23)cc1 [Example 223]	600

Test system: not given
Test: not given
Conditions: not given

melting point [°C]	Compound
117 to 119	O=C(O)c1ccc(OCCc2c(CCNS(=O)(=O)Cc3ccc(Cl)c(Cl)c3)n(C(c3ccccc3)c3ccccc3)c3ccc(Cl)cc23)cc1F [Example 296, 4-{2-[1-benzhydryl-5-chloro-2-(2-{[(3,4-dichlorobenzyl)sulfonyl]amino}ethyl)-1H-indol-3-yl]ethoxy}-2-fluorobenzoic acid]
132 to 135	O=C(O)c1ccc(OCCc2c(CCNS(=O)(=O)Cc3ccccc3Cl)n(C(c3ccccc3)c3ccccc3)c3ccc(Cl)cc23)cc1F [Example 297, 4-{2-[1-benzhydryl-5-chloro-2-(2-{[(2-chlorobenzyl)sulfonyl]amino}ethyl)-1H-indol-3-yl]ethoxy}-2-fluorobenzoic acid]
207 to 208	CC(C)(Cc1ccc(S(=O)(=O)CCc2c(CCNS(=O)(=O)Cc3ccc(Cl)c(Cl)c3)n(C(c3ccccc3)c3ccccc3)c3ccc(Cl)cc23)cc1)C(=O)O [Example 298, 3-[4-({2-[1-benzhydryl-5-chloro-2-(2-{[(3,4-dichlorobenzyl)sulfonyl]amino}ethyl)-1H-indol-3-yl]ethyl}sulfonyl)phenyl]-2,2-dimethylpropanoic acid]
